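Each compound was tested at five concentrations against cells in 96-well plates for 48 hours. TGI marks complete inhibition of growth.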
Key:
Experiment in all cases: NCI tumour cell line growth inhibition, 48 h
SN12C renal = system: SN12C renal
SNB-19 CNS = system: SNB-19 CNS
CAKI-1 renal = system: CAKI-1 renal
RXF 393 renal = system: RXF 393 renal
IGROV1 ovarian = system: IGROV1 ovarian
BT-549 breast = system: BT-549 breast
A498 renal = system: A498 renal
MOLT-4 leukemia = system: MOLT-4 leukemia
SNB-75 CNS = system: SNB-75 CNS
TK-10 renal = system: TK-10 renal

Structure (SMILES) | TGI (SN12C renal) | TGI (SNB-19 CNS) | TGI (CAKI-1 renal) | TGI (RXF 393 renal) | TGI (IGROV1 ovarian) | TGI (BT-549 breast) | TGI (A498 renal) | TGI (MOLT-4 leukemia) | TGI (SNB-75 CNS) | TGI (TK-10 renal)
Cc1cccc(Nc2cn(COCc3ccccc3)c(=O)[nH]c2=O)c1 | > 100 µM | > 100 µM | > 100 µM | > 100 µM | > 100 µM | > 100 µM | > 100 µM | > 100 µM | – | –
COC(=O)CC1(CNC(=O)OCc2ccccc2)OCCO1 | > 100 µM | > 100 µM | > 100 µM | > 100 µM | > 100 µM | > 100 µM | > 100 µM | > 100 µM | > 100 µM | > 100 µM
CCOP(=O)(/C=C\n1cnc2c(=O)n(C(C)=O)c(N)nc21)OCC | > 100 µM | > 100 µM | > 100 µM | > 100 µM | > 100 µM | > 100 µM | > 100 µM | > 100 µM | > 100 µM | > 100 µM
CCSC1=N/C(=C\c2ccccc2O)C(Nc2ccc(C)cc2)=N1 | > 100 µM | > 100 µM | > 100 µM | > 100 µM | > 100 µM | > 100 µM | > 100 µM | > 100 µM | > 100 µM | > 100 µM
O=C(O)CSc1cc(-c2ccccc2)nc2ccccc12 | > 100 µM | > 100 µM | > 100 µM | 94.8 µM | > 100 µM | > 100 µM | 67 µM | > 100 µM | – | > 100 µM
O=C1c2cc3ccccc3cc2C2(c3ccc(Cl)cc3)N[C@H]3CCCC[C@@H]3N12 (some centres not stated) | 43.8 µM | 27.9 µM | 70.3 µM | 24.2 µM | 30.6 µM | 36.9 µM | 39.7 µM | > 100 µM | 37.5 µM | 27.3 µM
COc1cccc2cc(C(N)=O)c(=N)oc12 | > 100 µM | > 100 µM | > 100 µM | > 100 µM | > 100 µM | > 100 µM | > 100 µM | > 100 µM | > 100 µM | –
CC(=O)OCC1OC(n2c(N)c(C#N)c(-c3ccccc3)c(C#N)c2=S)C(OC(C)=O)C(OC(C)=O)C1OC(C)=O (configuration not stated) | > 100 µM | > 75.4 µM | > 100 µM | > 70.5 µM | > 100 µM | > 100 µM | > 100 µM | > 100 µM | 30 µM | > 100 µM
CC(C)C(C/C=C1/CC(CO)(COC(=O)CC(C(C)C)C(C)C)OC1=O)C(C)C (configuration not stated) | 31.9 µM | 25.8 µM | 16.5 µM | 26 µM | 31.1 µM | 28.7 µM | 11 µM | 32.7 µM | 18.8 µM | 16.1 µM
Cc1ccc(/C=C/C(=O)c2c([O-])on[n+]2-c2ccccc2)cc1 | 31.3 µM | > 33.5 µM | 3.87 µM | 3.65 µM | 8.67 µM | 6.09 µM | 17.9 µM | 6.64 µM | 4.87 µM | 10.3 µM
CN1CCC2(CC1)C(=O)N(N1CCCCCC1)C(=O)N2c1ccccc1 | > 100 µM | > 100 µM | > 100 µM | > 100 µM | > 100 µM | > 100 µM | > 100 µM | > 100 µM | > 100 µM | > 100 µM
Cc1ccc2c(c1)NC(=O)CCSSCCC(=O)N2 | > 100 µM | > 100 µM | > 100 µM | > 100 µM | > 100 µM | > 100 µM | > 100 µM | > 100 µM | – | > 100 µM
CC(=O)Nc1ncc(Sc2ccccc2C(=O)O)s1 | > 100 µM | > 100 µM | > 100 µM | > 100 µM | > 100 µM | > 100 µM | > 100 µM | > 100 µM | > 100 µM | > 100 µM
CC1CCCC2=C1C(c1ccc(Cl)cc1)n1c(s/c(=C\c3ccc(Cl)cc3)c1=O)=N2 (configuration not stated) | > 100 µM | > 100 µM | > 100 µM | > 100 µM | > 100 µM | > 100 µM | > 100 µM | – | > 100 µM | > 100 µM
CCOP(=O)(Nc1ccc(-c2ccccc2)cc1)OCC | – | > 100 µM | > 100 µM | > 100 µM | > 100 µM | > 100 µM | > 100 µM | > 100 µM | > 100 µM | > 100 µM
Cc1csc2nc(-c3ccc([N+](=O)[O-])cc3)c(/C=N/N=C(N)N)n12 | 3.28 µM | 4.18 µM | 12.6 µM | 3.45 µM | 2.75 µM | 0.211 µM | 3.46 µM | – | 2.97 µM | 3.9 µM

Reference: PubChem BioAssay (NCI)
